From US8835420B2, “Azaindole derivatives” (Takeda Pharmaceutical Company Limited, priority 2012, dated 2014)

Biological target: T1, PI3Kδ (recombinant GST-tagged PIK3CD co-expressed with PIK3R1, p85α) (Homo sapiens, UniProt O00329)
T1 construct: The protein is full length and co-expressed with untagged PIK3R1; GST; purchased Invitrogen PV5274
Assay: PI3Kδ inhibition, modified PIK3CD Adapta TR-FRET kinase assay
Format: biochemical
Details: 2 μM ATP, 50 μM PIP2, 1 hour at room temperature, pIC50 = -log(IC50 in M)
Description: The activity of compounds as PI3Kδ inhibitors may be determined by a variety of methods, including in vitro and in vivo methods. The following in vitro assay measures a test compound's ability to inhibit PI3Kδ-mediated phosphorylation of PIP2 and ATP.
Recombinant GST-tagged PIK3CD is purchased from Invitrogen (Part Number: PV5274). The protein is full length and co-expressed with untagged PIK3R1, phosphoinositide-3-kinase regulatory subunit 1 (p85α). The protein is stored at −20° C. in 50 mM TRIS (pH 7.5), 150 mM NaCl, 0.5 mM EDTA, 0.02% Triton® X-100, 2 mM DTT, and 50% glycerol.
A modified PIK3CD Adapta® assay (Invitrogen, Carlsbad, Calif.) is used to measure PI3Kδ inhibition of the example compounds. The assay has two phases. In the first phase, kinase reaction components, which include the enzyme (PIK3CD), substrates (PIP2, ATP), test compound (inhibitor), and assay buffer are added to each well, and the reaction is allowed to incubate for a pre-determined period of time. After reaction, a detection solution composed of a Eu (europium)-labeled anti-ADP antibody, Alexa Fluor® 647-labeled ADP tracer, and EDTA (to stop the kinase reaction) is added to each assay well. In this second phase, ADP formed by the kinase reaction displaces the Alexa Fluor® 647-labeled ADP tracer from the antibody, resulting in a decrease in time-resolved fluorescence resonance energy transfer (TR-FRET) signal. In the presence of the inhibitor, the amount of ADP formed by the kinase reaction is reduced, and the resulting intact antibody-tracer interaction maintains a high TR-FRET signal.
The assay uses black Greiner® 384-well plates (784076). The reaction buffer contains 50 mM Hepes (pH 7.5), 3 mM MgCl2, 1 mM EGTA, 100 mM NaCl, 0.03% CHAPS; 2 mM DTT is added fresh prior to each experiment. Enzyme (4 μL, estimated 1.5 nM in buffer) is first added to the wells of the plate. Next, test compounds (2 μL) from a source plate (5% dilution plate) are introduced into the wells. The final DMSO concentration in each assay well is 1%. The dilution plate contains 5% DMSO in the bottom half of columns 23 and 24, which serve as negative (non-inhibited) controls; the top half contains a known inhibitor concentration (positive control) that gives >98% inhibition of the kinase reaction. Other wells contain test compounds serially diluted across the plate 11 times for a total of 12 data points. The kinase reactions are carried out at room temperature and are initiated by the addition of 4 μL of solution containing 2 μM ATP and 50 μM PIP2. Each reaction is stopped after 1 hour±10 minutes via addition of 10 μL stop solution, which contains a final assay concentration of 3 nM Alexa Fluor® 647-labeled ADP tracer, 2 nM Eu-anti-ADP Antibody, and 10 mM EDTA. After allowing the solutions to equilibrate for 30±10 minutes, a PHERAstar plate reader is used to excite the Eu donor (at 337 nm) and to detect emission from the Alexa Fluor® 647 at 665 nm. This emission signal is referenced or “ratioed” to the emission from Eu at 620 nm. The emission ratio (665 nm/620 nm) from each well is collected and converted to percent conversion using a standard curve for the assay conditions: % conversion=B*(C+A−emission ratio)/(emission ratio−C), where “A” and “C” are the maximum and minimum values of the emission ratio obtained from the standard curve of emission ratio vs. % conversion (ATP-ADP); “B” is the emission ratio corresponding to the % conversion at the EC50 value for the ADP Tracer—Eu anti-ADP antibody complex. The percent inhibition for a given inhibitor concentration is computed from % conversion for the reaction and for the positive and negative controls. Corresponding IC50 values are calculated by non-linear curve fitting of the compound concentrations and values of percent inhibition to the standard IC50 equation and are reported as pIC50, i.e., −log(IC50), where IC50 is molar concentration at 50% inhibition.

T1 sequence (O00329 whole entry): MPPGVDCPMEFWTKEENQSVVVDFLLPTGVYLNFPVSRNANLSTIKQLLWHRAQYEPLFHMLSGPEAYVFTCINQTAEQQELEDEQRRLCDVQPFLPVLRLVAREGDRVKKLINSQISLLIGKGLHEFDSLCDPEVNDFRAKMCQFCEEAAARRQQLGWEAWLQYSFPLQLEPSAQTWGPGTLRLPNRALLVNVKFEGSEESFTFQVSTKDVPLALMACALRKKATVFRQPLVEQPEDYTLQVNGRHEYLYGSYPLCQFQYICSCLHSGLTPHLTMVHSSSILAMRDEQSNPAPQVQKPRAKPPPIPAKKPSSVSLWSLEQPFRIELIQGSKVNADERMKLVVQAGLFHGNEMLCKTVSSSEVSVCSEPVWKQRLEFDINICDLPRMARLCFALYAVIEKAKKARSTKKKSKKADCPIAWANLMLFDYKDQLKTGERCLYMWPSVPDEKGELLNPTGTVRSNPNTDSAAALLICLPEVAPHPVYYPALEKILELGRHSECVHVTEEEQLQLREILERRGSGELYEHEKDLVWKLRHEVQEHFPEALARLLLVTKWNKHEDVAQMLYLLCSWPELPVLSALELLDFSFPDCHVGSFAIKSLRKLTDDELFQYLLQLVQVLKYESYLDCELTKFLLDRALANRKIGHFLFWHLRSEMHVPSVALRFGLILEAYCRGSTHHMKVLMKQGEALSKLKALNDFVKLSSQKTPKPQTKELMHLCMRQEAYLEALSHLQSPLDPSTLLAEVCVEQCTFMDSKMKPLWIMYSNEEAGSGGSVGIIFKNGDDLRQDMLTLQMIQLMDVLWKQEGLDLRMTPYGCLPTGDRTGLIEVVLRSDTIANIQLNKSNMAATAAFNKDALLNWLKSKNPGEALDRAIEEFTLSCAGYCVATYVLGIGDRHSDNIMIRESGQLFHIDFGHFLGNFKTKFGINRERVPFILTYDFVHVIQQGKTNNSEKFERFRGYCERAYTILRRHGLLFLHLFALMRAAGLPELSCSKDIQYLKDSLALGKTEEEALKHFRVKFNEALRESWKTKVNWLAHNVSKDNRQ
T1 sequence (P27986 whole entry partner): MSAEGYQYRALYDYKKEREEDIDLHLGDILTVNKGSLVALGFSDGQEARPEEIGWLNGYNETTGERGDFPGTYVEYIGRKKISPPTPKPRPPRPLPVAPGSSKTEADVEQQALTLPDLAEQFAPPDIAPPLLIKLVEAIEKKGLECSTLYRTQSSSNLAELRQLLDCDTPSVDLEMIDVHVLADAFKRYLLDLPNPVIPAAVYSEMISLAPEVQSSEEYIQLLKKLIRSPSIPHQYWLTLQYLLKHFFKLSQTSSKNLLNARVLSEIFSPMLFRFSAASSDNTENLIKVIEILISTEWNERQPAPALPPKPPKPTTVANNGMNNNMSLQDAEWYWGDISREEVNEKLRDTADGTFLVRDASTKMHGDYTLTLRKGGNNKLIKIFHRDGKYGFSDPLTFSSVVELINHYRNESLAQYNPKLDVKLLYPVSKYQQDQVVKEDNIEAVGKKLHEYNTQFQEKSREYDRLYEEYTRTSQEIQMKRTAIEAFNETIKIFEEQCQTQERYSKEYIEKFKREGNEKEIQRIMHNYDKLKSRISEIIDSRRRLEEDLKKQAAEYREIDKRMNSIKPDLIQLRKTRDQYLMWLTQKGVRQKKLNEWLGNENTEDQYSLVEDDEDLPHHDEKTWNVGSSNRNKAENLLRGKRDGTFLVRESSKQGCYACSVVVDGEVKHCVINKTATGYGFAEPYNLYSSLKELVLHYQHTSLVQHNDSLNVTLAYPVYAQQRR

SMILES	IC50 [nM]
C[C@@H](Nc1nc(N)nc(N)c1C#N)c1nc2ccn(C)c2cc1N1CCC(C)(O)CC1 [Example 22, (R)-2,4-Diamino-6-((1-(6-(4-hydroxy-4-methylpiperidin-1-yl)-1-methyl-1H-pyrrolo[3,2-b]pyridin-5-yl)ethyl)amino)pyrimidine-5-carbonitrile]	2000
Cc1n[nH]c(C)c1-c1cc2c(ccn2C)nc1[C@H](C)Nc1nc(N)nc(N)c1C#N [Example 14, 2,4-Diamino-6-(((1S)-1-(6-(3,5-dimethyl-1H-pyrazol-4-yl)-1-methyl-1H-pyrrolo[3,2-b]pyridin-5-yl)ethyl)amino)pyrimidine-5-carbonitrile]	7.94
C[C@H](Nc1nc(N)nc2[nH]cnc12)c1nc2ccn(C)c2cc1-c1ccnn1C1CC1 [Example 36, (S)-N^6-(1-(6-(1-Cyclopropyl-1H-pyrazol-5-yl)-1-methyl-1H-pyrrolo[3,2-b]pyridin-5-yl)ethyl)-9H-purine-2,6-diamine]	10
CC(Nc1nc(N)nc(N)c1Cl)c1nc2ccn(C)c2cc1N1CC(O)C1 (stereo not drawn) [Example 40, 1-(5-(1-((2,6-Diamino-5-chloropyrimidin-4-yl)amino)ethyl)-1-methyl-1H-pyrrolo[3,2-b]pyridin-6-yl)azetidin-3-ol]	79.4
C[C@H](Nc1nc(N)ncc1C#N)c1nc2ccn(C)c2cc1-c1ccnn1C [Example 4, (S)-2-Amino-4-((1-(1-methyl-6-(1-methyl-1H-pyrazol-5-yl)-1H-pyrrolo[3,2-b]pyridin-5-yl)ethyl)amino)pyrimidine-5-carbonitrile]	63.1
CC(Nc1nc(N)nc(N)c1C#N)c1nc2ccn(C)c2cc1N1CC(O)C1 (stereo not drawn) [Example 39, 2,4-Diamino-6-((1-(6-(3-hydroxyazetidin-1-yl)-1-methyl-1H-pyrrolo[3,2-b]pyridin-5-yl)ethyl)amino)pyrimidine-5-carbonitrile]	< 1.58
C[C@H](Nc1nc(N)nc(N)c1C#N)c1nc2ccn(C)c2cc1N1CC(F)(F)C1 [Example 44, (S)-2,4-Diamino-6-((1-(6-(3,3-difluoroazetidin-1-yl)-1-methyl-1H-pyrrolo[3,2-b]pyridin-5-yl)ethyl)amino)pyrimidine-5-carbonitrile]	2
Cc1nc(N)nc(N[C@@H](C)c2nc3ccn(C)c3cc2-c2c(C)noc2C)c1C#N [Example 31, 2-Amino-4-(((1S)-1-(6-(3,5-dimethylisoxazol-4-yl)-1-methyl-1H-pyrrolo[3,2-b]pyridin-5-yl)ethyl)amino)-6-methylpyrimidine-5-carbonitrile]	3.98
C[C@H](Nc1nc(N)nc(N)c1C#N)c1nc2ccn(C)c2cc1-c1ccnn1C1CC1 [Example 35, (S)-2,4-Diamino-6-((1-(6-(1-cyclopropyl-1H-pyrazol-5-yl)-1-methyl-1H-pyrrolo[3,2-b]pyridin-5-yl)ethyl)amino)pyrimidine-5-carbonitrile]	2.51
Cc1nc(N)nc(N[C@@H](C)c2nc3ccn(C)c3cc2-c2ccnn2C)c1C#N [Example 3, (S)-2-Amino-4-methyl-6-((1-(1-methyl-6-(1-methyl-1H-pyrazol-5-yl)-1H-pyrrolo[3,2-b]pyridin-5-yl)ethyl)amino)pyrimidine-5-carbonitrile]	1.58
Cc1nc(N)nc(N[C@@H](C)c2nc3ccn(C)c3cc2-c2ccnc(O)c2)c1C#N [Example 23, (S)-2-Amino-4-((1-(6-(2-hydroxypyridin-4-yl)-1-methyl-1H-pyrrolo[3,2-b]pyridin-5-yl)ethyl)amino)-6-methylpyrimidine-5-carbonitrile]	< 1
C[C@H](Nc1nc(N)nc(N)c1C#N)c1nc2c(O)cn(C)c2cc1N1CCOCC1 [Example 49, (S)-2,4-Diamino-6-((1-(3-hydroxy-1-methyl-6-morpholino-1H-pyrrolo[3,2-b]pyridin-5-yl)ethyl)amino)pyrimidine-5-carbonitrile]	251
C[C@H](Nc1nc(N)nc(N)c1C#N)c1nc2ccn(C)c2cc1N1CC2(COC2)C1 [Example 47, (S)-2,4-Diamino-6-((1-(1-methyl-6-(2-oxa-6-azaspiro[3.3]heptan-6-yl)-1H-pyrrolo[3,2-b]pyridin-5-yl)ethyl)amino)pyrimidine-5-carbonitrile]	15.8
C[C@@H](Nc1nc(N)nc(N)c1C#N)c1nc2ccn(C)c2cc1N1CCOCC1 [Example 48, (R)-2,4-Diamino-6-((1-(1-methyl-6-morpholino-1H-pyrrolo[3,2-b]pyridin-5-yl)ethyl)amino)pyrimidine-5-carbonitrile]	79.4
Cc1nc(N)nc(N[C@@H](C)c2nc3ccn(C)c3cc2-c2ccccn2)c1C#N [Example 24, (S)-2-Amino-4-methyl-6-((1-(1-methyl-6-(pyridin-2-yl)-1H-pyrrolo[3,2-b]pyridin-5-yl)ethyl)amino)pyrimidine-5-carbonitrile]	< 1
C[C@H](Nc1nc(N)nc(N)c1C#N)c1nc2ccn(C)c2cc1-c1ccccn1 [Example 12, (S)-2,4-Diamino-6-((1-(1-methyl-6-(pyridin-2-yl)-1H-pyrrolo[3,2-b]pyridin-5-yl)ethyl)amino)pyrimidine-5-carbonitrile]	1.58

Next, values leading:

IC50 [nM]	SMILES
79400	C[C@H](Nc1nc(N)ncc1F)c1nc2ccn(C)c2cc1-c1ccnn1C [Example 7, (S)-5-Fluoro-N^4-(1-(1-methyl-6-(1-methyl-1H-pyrazol-5-yl)-1H-pyrrolo[3,2-b]pyridin-5-yl)ethyl)pyrimidine-2,4-diamine]
2.51	C[C@H](Nc1nc(N)nc(N)c1C#N)c1nc2ccn(C)c2cc1-c1ccnn1C [Example 2, (S)-2,4-Diamino-6-((1-(1-methyl-6-(1-methyl-1H-pyrazol-5-yl)-1H-pyrrolo[3,2-b]pyridin-5-yl)ethyl)amino)pyrimidine-5-carbonitrile]
1000	C[C@H](Nc1nc(O)nc(N)c1C#N)c1nc2ccn(C)c2cc1N1CCOCC1 [Example 8, (S)-4-Amino-2-hydroxy-6-((1-(1-methyl-6-morpholino-1H-pyrrolo[3,2-b]pyridin-5-yl)ethyl)amino)pyrimidine-5-carbonitrile]
31.6	C[C@H](Nc1nc(N)nc(N)c1Cl)c1nc2ccn(C)c2cc1-c1ccnn1C [Example 33, (S)-5-Chloro-N^4-(1-(1-methyl-6-(1-methyl-1H-pyrazol-5-yl)-1H-pyrrolo[3,2-b]pyridin-5-yl)ethyl)pyrimidine-2,4,6-triamine]
< 1	C[C@H](Nc1nc(N)nc(N)c1C#N)c1nc2ccn(C)c2cc1-c1cscn1 [Example 17, (S)-2,4-Diamino-6-((1-(1-methyl-6-(thiazol-4-yl)-1H-pyrrolo[3,2-b]pyridin-5-yl)ethyl)amino)pyrimidine-5-carbonitrile]
< 1	C[C@H](Nc1nc(N)nc(N)c1C#N)c1nc2ccn(C)c2cc1-c1ccnc(O)c1 [Example 15, (S)-2,4-Diamino-6-((1-(6-(2-hydroxypyridin-4-yl)-1-methyl-1H-pyrrolo[3,2-b]pyridin-5-yl)ethyl)amino)pyrimidine-5-carbonitrile]
< 2.51	C[C@H](Nc1nc(N)nc(N)c1C#N)c1nc2ccn(C)c2cc1N1CCOCC1 [Example 10, (S)-2,4-Diamino-6-((1-(1-methyl-6-morpholino-1H-pyrrolo[3,2-b]pyridin-5-yl)ethyl)amino)pyrimidine-5-carbonitrile]
< 1.26	C[C@H](Nc1nc(N)nc(N)c1C#N)c1nc2ccn(C)c2cc1N1CCOCC1 [Example 29, (S)-2,4-Diamino-6-((1-(1-methyl-6-morpholino-1H-pyrrolo[3,2-b]pyridin-5-yl)ethyl)amino)pyrimidine-5-carbonitrile]
